The subject of assay [1] is rats with permanent occlusion of the middle cerebral artery. As to conditions: systemic administration, 10 mg/kg 1 hour post ischemia; compared with vehicle controls; cited from earlier work.
Assay [2] relates to TNF-α production by human monocytes. Description: Assay for inhibition of TNF-α production by human monocytes. The note with it: 100 ng/ml LPS, 16 hours, ELISA, read-out: IC50 Against TNF-α. In kind it is cell-based. The procedure:
Assay for inhibition of TNF-α production by human monocytes
Monocytes were prepared by centrifugal counterflow elutriation from PBMC obtained from leukophoresis of normal volunteers (leukopaks) at the Phoresis laboratory located at Duke University Hospital, Durham, N.C., United States of America. PBMC from leukopaks were diluted in sterile isotonic saline/10 mM HEPES (N-[2-Hydroxyethyl]piperazine-N′-[2-ethanesulfonic acid]), the name of a buffer used in biological and protein chemistry) and placed into 50 ml conical polypropylene tubes in 30 ml aliquots. Each aliquot of diluted PBMC is underlaid with 20-25 ml of sterile lymphocyte separation medium (LSM; Organon-Technika, Durham, N.C., United States of America). The tubes were centrifuged at 400× gravity for 40 minutes at room temperature. The mononuclear cells at the interface were resuspended in phosphate buffered saline (PBS) and then separated, using a Beckman elutriator, into lymphocytes and monocytes. Yields of 10^9 monocytes with greater than 90% purity were routinely obtained.
Purified monocytes prepared as described above were suspended at 4×10^6 cells/ml in complete medium. Complete medium is defined as follows: RPMI-1640 supplemented with 100 U/ml penicillin; 100 μg/ml streptomycin; 2 mM L-glutamine; 1 mM Na pyruvate; 1% MEM non-essential amino acids; 25 mM HEPES (all from GIBCO, Gaithersburg, Md., United States of America); and 5% pooled, heat-inactivated (56° C., 30 minutes) human serum from type AB blood (Pel-Freez, Brown Deer, Wis., United States of America). To each well of a 48-well flat bottomed tissue culture plate was added 0.125 ml of cell suspension. Test materials (diluted in complete medium at 2× the desired final concentration) were added in […] to each well. Control wells received 250 μl of complete medium. All samples were tested at a minimum of 4 concentrations in the presence or absence of 100 ng/ml LPS (S. typhosa; Sigma, St. Louis, Mo., United States of America; 125 μl of 4× desired final concentration added) and incubated at 37° C. in humidified 5% CO2 for 16 hours. At this time, culture supernatants were aspirated off and the unattached cells and cell debris removed by a 2 minute spin in a microcentrifuge at 10,000× gravity. The release of TNF-α was determined in the cell-free supernatants using an ELISA capture assay.
(In general: In an ELISA, binding on a coated surface is turned into a signal by an enzyme label.)

In another assay the test system is mRNA for GAPDH. Description: Housekeeping gene mRNA in normal human PBMC by RT-PCR: GAPDH. In kind it is cell-based. As to conditions: FIG. 6. The protocol: (§1) The ability of LMP-420 to affect the expression of C-C chemokine receptors on normal human PBMC was tested as illustrated in FIG. 6. […] There was no effect on CCR4, the only other C-C chemokine receptor whose mRNA could be detected in these unstimulated human PBMC. Also, there was no effect on the mRNA for GAPDH which is used as a “housekeeping gene” to verify that equal amounts of mRNA are being reversed transcribed for the analysis. Thus, the ability of LMP-420 to inhibit the expression of CCR1 might contribute to antiinflammatory properties of LMP-420, as well as its ability to inhibit HIV-1 replication.

In a further assay the test system is mRNA encoding for CCR1. Description: Expression of C-C chemokine receptor mRNA in normal human PBMC by RT-PCR: CCR1. It is filed as cell-based. As to conditions: FIG. 6. The protocol: as §1
The next assay concerns CCR4 mRNA. Description: Expression of C-C chemokine receptor mRNA in normal human PBMC by RT-PCR: CCR4. It is filed as cell-based. As to conditions: unstimulated human PBMC, FIG. 6. The procedure: as §1
The subject of assay [3] is TNF-α production by murine macrophage cell line J774.1. Description: Inhibition of TNF-α production by a murine macrophage cell line (J774.1). In kind it is cell-based. The note with it: FIG. 1; read-out: IC50, production of TNF-α by cultured murine macrophage cell line. The protocol:
(§2) Assay for inhibition of TNF-α or nitric oxide (NO) by a murine macrophage cell line
(§3) Murine macrophage cell line J774.1 cells were maintained by culture at 37° C. in 5% humidified CO2 in media that was […] (DMEM) supplemented with 100 U/ml penicillin; 100 μg/ml streptomycin; 2 mM L-glutamine; 1 mM Na pyruvate; 1% MEM non-essential amino acids; 25 mM HEPES (all from GIBCO, Gaithersburg, Md., United States of America); and 10% pooled, heat-inactivated (56° C., 30 minutes) fetal bovine serum (FBS; GIBCO). For assays of TNF-α and nitric oxide production, cells were cultured at 1×10^5 cells/well in 96-well tissue culture plates. Test compound was prepared as a stock solution in DMSO and added to each well to give the desired final concentration. DMSO was added to control wells to serve as a vehicle control. Each concentration of test material or vehicle control was tested in replicates of 4 wells. After a 1 hour exposure to test material, a stimulus (either SAK2 stimulatory oligonucleotide [10 μg] or LPS [10 ng/ml]+IFNγ[100 u/ml]) was added to each well, and the plates incubated for 48 hours at 37° C. in 5% humidified CO2. […] Content of nitrite/nitrate in J774.1 cell culture supernatants was expressed as μM.

Assay [4] deals with nitric oxide production by murine macrophage cell line J774.1. Description: Nitric oxide production by a murine macrophage cell line (J774.1), nitrate/nitrite by Griess reagent. The note with it: FIG. 2. In kind it is cell-based. The protocol:
as §2, §3
A general note: Nitrite, measured by Griess reagent, commonly stands in for NO production.

The conditions of assay [5]: 400 mg 3 times daily, 6 months; placebo 26.8%, p=0.04; cited from earlier work.
For assay [6] the following is noted: cited from earlier work.
Assay [7] concerns the target T1, biologically-active TNF-α (Homo sapiens, UniProt P01375).
T1 construct: host or cells: serum of heart-failure patients
The note with it: heart failure patients; cited from earlier work.

The conditions of assay [8]: two weeks after a single infusion; cited from earlier work.

Data on eight compounds can be found in US20030022864A1, “9-[(5-dihydroxyboryl)-pentyl] purines, useful as an inhibitor of inflammatory cytokines” (priority 2001, published 2003).

By IC50 is commonly meant the midpoint of a concentration-inhibition curve.

T1 sequence (P01375 77-233 limits assumed): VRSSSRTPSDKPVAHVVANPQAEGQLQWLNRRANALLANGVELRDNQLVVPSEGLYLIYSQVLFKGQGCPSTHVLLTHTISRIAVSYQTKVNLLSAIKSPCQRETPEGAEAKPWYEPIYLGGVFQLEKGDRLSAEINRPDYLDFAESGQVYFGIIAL

For `C/C(=N\N=C(N)N)c1cc(NC(=O)CCCCCCCCC(=O)Nc2cc(/C(C)=N/N=C(N)N)cc(/C(C)=N/N=C(N)N)c2)cc(/C(C)=N/N=C(N)N)c1.Cl.Cl.Cl.Cl` [CNI-1493], the reduced infarct volume in [1] is 80%.

Consider `Nc1nc(Cl)c2ncn(CCCCO)c2n1` [Comparison Compound 6], for which the IC50 in assay [2] was more than 50000 nM.

For the compound `Nc1nc(Cl)c2ncn(CCCC(=O)O)c2n1` [Comparison Compound 13], the IC50 in assay [2] is more than 20000 nM.

On to `CCOC(=O)CCCn1cnc2c(Cl)nc(N)nc21` [Comparison Compound 14], for which the IC50 in assay [2] was more than 20000 nM.

As to `Nc1nc(Cl)c2ncn(CCCCCB(O)O)c2n1` [LMP-420, 2-amino-6-chloro-9-[(5-dihydroxyboryl)-pentyl] purine], the IC50 in assay [2] is 80 nM; in assay [3], approximately 1000 nM. For the same compound, the “effect on the mRNA for GAPDH” value in the assay on mRNA for GAPDH is recorded as “no effect”. Besides, in the assay with mRNA encoding for CCR1, the “expression of mRNA encoding for CCR1” value is given as “dose-dependent inhibition”. For the same compound, the “effect on CCR4 mRNA” value in the assay on CCR4 mRNA is “no effect”. In addition, the “effect on the production of nitric oxide as measured by the release of nitrate or nitrite” value in assay [4] is recorded as “no effect”.

Take `CC(=O)CCCCn1c(=O)c2c(ncn2C)n(C)c1=O` [Pentoxifylline]: the “left ventricular ejection fraction (LVEF)” value in [5] is reported as 38.7%.

Turning to ENBREL, the “patients who achieved the ARC20” value in assay [6] (12 weeks, placebo 13%) is listed as 73%. The “patients who met the PsARC” value in [6] (12 weeks, placebo 23%) is listed as 87%. Besides, the “patients who achieved a 75% improvement in the PASI” value in [6] (19 assessable patients per group, placebo 0, p=0.015) was 26%. Also, the “median target lesions (improvement)” value in assay [6] (placebo 0%) was 50%. Besides, the “median PASI improvement” value in assay [6] (placebo 9%) is listed as 46%. Moreover, in assay [7], the “decrease in serum levels of biologically-active TNF-α” value is recorded as 85%.

Regarding “REMICADE: humanized murine monoclonal antibody to TNF-α”, the “patient's psoriasis” value in [8] was “dramatically cleared up”.
